Active and inactive are the calls of the source.
Experiments:
[1] = viability of uninfected HEp-2 cells – cell-based, HTS, cytotoxicity control for RSV inhibitor project, dose response (AID 2410); assay type: functional; conditions: human respiratory syncytial virus
[2] = target: T1, Probable nicotinate-nucleotide adenylyltransferase (Staphylococcus aureus (strain N315), UniProt P65502); assay type: functional, Staphylococcus aureus subsp. aureus N315;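 as to IC50 Mean: confirmatory dose-response retesting of NadD inhibitor hits first found in an ultra-high-throughput screen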
T1 sequence (P65502 whole entry): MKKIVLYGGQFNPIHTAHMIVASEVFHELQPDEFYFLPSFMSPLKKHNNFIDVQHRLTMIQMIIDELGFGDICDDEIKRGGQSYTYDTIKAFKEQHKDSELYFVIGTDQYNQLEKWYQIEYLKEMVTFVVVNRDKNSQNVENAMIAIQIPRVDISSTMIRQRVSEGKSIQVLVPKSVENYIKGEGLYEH

[3] = target: T1, Probable nicotinate-nucleotide adenylyltransferase; assay type: functional, Staphylococcus aureus subsp. aureus N315; conditions: read-out: IC50_Mean
[4] = target: T2, Adenosylmethionine-8-amino-7-oxononanoate aminotransferase (Mycobacterium tuberculosis, UniProt P9WQ81); assay: Mycobacterium tuberculosis BioA enzyme inhibitor Measured in Biochemical System Using Plate Reader - 2163-02_Inhibitor_Dose_CherryPick_Activity.; assay type: functional, Mycobacterium tuberculosis UT205
T2 sequence (P9WQ81 whole entry): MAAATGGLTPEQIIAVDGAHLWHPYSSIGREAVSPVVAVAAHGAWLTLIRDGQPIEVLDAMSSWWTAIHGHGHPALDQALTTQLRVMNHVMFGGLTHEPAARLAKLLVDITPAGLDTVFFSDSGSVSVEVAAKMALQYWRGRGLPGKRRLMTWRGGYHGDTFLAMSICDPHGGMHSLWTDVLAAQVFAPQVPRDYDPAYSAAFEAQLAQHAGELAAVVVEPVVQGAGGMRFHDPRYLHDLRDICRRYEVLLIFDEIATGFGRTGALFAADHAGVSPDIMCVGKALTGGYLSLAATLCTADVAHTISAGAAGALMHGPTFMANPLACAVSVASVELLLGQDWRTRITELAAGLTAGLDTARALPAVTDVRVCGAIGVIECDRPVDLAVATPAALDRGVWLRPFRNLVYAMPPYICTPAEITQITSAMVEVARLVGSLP

[5] = target: T3, Carboxy-terminal domain RNA polymerase II polypeptide A small phosphatase 1 (Homo sapiens, UniProt Q9GZU7); assay: CTDSP1 inhibitors, concentration-response, biochemical, absorbance readout, ultra-high-throughput screen actives (AID 540297); assay type: functional
T3 sequence (Q9GZU7 whole entry): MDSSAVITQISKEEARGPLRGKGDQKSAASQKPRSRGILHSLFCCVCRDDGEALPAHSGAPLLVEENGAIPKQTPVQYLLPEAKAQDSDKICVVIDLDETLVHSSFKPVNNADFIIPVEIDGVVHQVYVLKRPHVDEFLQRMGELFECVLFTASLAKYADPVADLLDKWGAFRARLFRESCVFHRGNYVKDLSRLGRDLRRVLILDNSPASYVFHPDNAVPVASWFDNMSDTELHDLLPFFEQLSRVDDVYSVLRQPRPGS

[6] = activation of miR-122 Renilla sensor silencing – cell-based, Huh7 psiCHECK-miR122, Renilla luciferase, cherry-picked, dose response (AID 651956); assay type: functional;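 also: huh7 hepatoma cells stably carrying a psiCHECK-2 miR-122 sensor plasmid; renilla luciferase signal reporting endogenous miR-122 activity after 48 h compound exposure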
[7] = Luminescence Cell-Based Dose Retest to Confirm Inhibitors of Cancer Stem Cells. [Related pubchem assays (depositor defined):AID2717, AID2721]; assay type: functional; conditions: Homo sapiens
[8] = target: Photoreceptor-specific nuclear receptor (Homo sapiens, UniProt Q9Y5X4); assay type: functional, cell-based;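 also: CHO-S cells with Gal4-NCOR and VP16-NR2E3 two-hybrid luciferase reporter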
Chain of Photoreceptor-specific nuclear receptor (Q9Y5X4 whole entry, the tested form may be a part): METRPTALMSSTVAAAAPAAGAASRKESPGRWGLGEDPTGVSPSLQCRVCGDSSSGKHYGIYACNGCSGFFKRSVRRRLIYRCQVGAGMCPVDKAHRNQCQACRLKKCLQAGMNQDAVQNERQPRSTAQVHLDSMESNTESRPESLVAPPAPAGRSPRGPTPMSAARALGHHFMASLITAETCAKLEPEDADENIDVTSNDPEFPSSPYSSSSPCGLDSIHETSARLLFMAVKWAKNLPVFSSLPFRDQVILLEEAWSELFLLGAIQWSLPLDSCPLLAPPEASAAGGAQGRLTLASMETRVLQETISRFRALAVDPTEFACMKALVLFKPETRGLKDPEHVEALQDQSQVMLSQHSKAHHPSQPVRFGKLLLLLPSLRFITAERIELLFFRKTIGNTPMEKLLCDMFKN

[9] = target: Nuclear receptor subfamily 5 group A member 2 (Homo sapiens, UniProt O00482); assay type: functional, cell-based;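 also: HEK293T cells transfected with LRH-1 and a StAR promoter luciferase reporter; potency for inhibitors that lower LRH-1 driven reporter light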
Chain of Nuclear receptor subfamily 5 group A member 2 (O00482 whole entry): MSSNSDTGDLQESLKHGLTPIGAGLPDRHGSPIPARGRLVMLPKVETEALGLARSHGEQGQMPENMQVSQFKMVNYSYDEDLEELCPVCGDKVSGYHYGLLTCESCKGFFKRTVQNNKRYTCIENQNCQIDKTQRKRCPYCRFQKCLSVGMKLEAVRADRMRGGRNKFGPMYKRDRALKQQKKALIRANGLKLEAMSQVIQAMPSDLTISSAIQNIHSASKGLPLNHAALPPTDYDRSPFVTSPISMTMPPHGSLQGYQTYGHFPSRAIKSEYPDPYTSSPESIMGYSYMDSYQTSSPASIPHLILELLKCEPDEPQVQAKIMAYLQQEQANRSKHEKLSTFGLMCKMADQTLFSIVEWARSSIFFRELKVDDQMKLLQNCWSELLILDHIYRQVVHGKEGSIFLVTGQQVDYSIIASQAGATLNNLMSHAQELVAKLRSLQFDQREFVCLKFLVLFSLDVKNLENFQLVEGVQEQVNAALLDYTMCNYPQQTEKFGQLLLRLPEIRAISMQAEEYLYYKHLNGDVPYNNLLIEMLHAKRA

Steroidogenic factor 1 = Steroidogenic factor 1 (Homo sapiens, UniProt Q13285); assay: Counterscreen for inverse agonists of the liver receptor homolog-1 (LRH-1; NR5A2): Luminescence-based cell-based high throughput dose response assay to identify inverse agonists of the Steroidogenic Factor 1 Nuclear Receptor (SF1; NR5A1).; assay type: functional
Chain of Steroidogenic factor 1 (Q13285 whole entry): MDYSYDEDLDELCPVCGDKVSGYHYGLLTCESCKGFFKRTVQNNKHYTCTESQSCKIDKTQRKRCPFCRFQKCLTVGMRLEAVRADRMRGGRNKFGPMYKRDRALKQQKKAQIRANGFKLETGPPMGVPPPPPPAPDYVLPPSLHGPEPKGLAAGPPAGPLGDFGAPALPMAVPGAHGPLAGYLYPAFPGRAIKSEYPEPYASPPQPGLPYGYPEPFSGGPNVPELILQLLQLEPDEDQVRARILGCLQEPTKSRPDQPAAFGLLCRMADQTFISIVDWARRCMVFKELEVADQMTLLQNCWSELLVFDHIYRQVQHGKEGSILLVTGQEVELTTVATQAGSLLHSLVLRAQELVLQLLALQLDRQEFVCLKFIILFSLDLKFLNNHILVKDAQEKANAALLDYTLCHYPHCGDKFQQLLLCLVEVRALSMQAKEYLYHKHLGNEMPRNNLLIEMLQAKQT

[10] = nonselective StAR promoter luciferase inhibitors – cell-based, luminescence, luciferase reporter, counter-screen for LRH-1 inverse agonist project, dose response (AID 651969); assay type: functional
[11] = test system: Streptococcus sp. 'group A'; assay: Streptococcus pyogenes SK(-)GAS viability under kanamycin – luminescence, BacTiterGlo, confirmation, counter-screen for streptokinase expression inhibitor project, dose response (AID 1900); assay type: functional, organism-based
Streptokinase A = target: T4, Streptokinase A (Streptococcus pyogenes serotype M1, UniProt P10520); assay: viability-normalized secreted streptokinase activity reduction – plasminogen activation absorbance, OD405, dose response (AID 1914); assay type: functional, Streptococcus pyogenes M1 GAS;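 also: secreted streptokinase activity via plasminogen activation per viability signal from cell pellet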
T4 sequence (P10520 whole entry): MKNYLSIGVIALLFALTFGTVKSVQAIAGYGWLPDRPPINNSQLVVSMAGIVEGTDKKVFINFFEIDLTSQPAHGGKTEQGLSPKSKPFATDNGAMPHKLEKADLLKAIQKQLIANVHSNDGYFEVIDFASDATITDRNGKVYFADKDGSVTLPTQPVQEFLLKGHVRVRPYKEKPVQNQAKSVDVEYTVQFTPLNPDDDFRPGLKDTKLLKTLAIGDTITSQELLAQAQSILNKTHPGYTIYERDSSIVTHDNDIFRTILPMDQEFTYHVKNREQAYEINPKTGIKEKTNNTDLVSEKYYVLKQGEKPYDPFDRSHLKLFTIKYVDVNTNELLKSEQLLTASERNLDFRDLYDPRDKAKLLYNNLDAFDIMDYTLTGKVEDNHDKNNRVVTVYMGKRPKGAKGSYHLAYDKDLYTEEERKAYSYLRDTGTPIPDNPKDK

Streptococcus = assay: GAS UMAA2166 growth inhibition – luminescence, BacTiterGlo, counter-screen for streptokinase expression inhibitor project, dose response (AID 1915); assay type: functional, organism-based;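 also: potency for reduction of bacterial viability or growth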

Q: For `O=S(=O)(c1cccc(Cl)c1)N1CCCC(c2nc(O)c3nnn(Cc4ccc5c(c4)OCCO5)c3n2)C1` (stereo not drawn), which CC50 [1] is on record?
A: 11.3 µM (active)

Q: What about the IC50 [2] of the same molecule?
A: 9.91 µM (active)

Q: And the IC50 [3]?
A: 30.5 µM (active)

Q: And the IC50 (cells)?
A: 10.3 µM (active)

Q: Which AC50 [4] does the source give for `COC(=O)C1CCN(C(c2ccc(OC)c(OC)c2)c2sc3nc(C)nn3c2O)CC1` (stereo not drawn) here?
A: 17.4 µM (active)

Q: Which results are given for `Cc1noc(C)c1NC(=O)N(C)C[C@@H]1Oc2c(NC(=O)c3ccncc3)cccc2C(=O)N([C@H](C)CO)C[C@@H]1C`?
A: IC50 [5]: 7.66 µM (active); IC50 [2]: 27.3 µM (active); IC50 [3]: 38.7 µM (active)

Q: For `C[C@@H]1CN([C@H](C)CO)S(=O)(=O)c2ccc(C3=CCCC3)cc2O[C@@H]1CN(C)C(=O)Cc1ccncc1`, which AC50 [6] is on record?
A: 5.84 µM (active)

Q: Which AC50 [6] does the source give for `COc1ccccc1C#Cc1ccc([C@H]2[C@@H](CO)N3CCCCN(CCC(F)(F)F)C[C@H]23)cc1` here?
A: 17.6 µM (active)

Q: With `N#Cc1c(-c2ccccc2)cc(-c2ccccc2)nc1SCCC(=O)O` as the molecule, how does the AC50 [7] read?
A: 1.6 µM (active)

Q: And the IC50 [8]?
A: 12.7 µM (inactive)

Q: With `CCCN(CC(=O)Nc1ccccc1C)CC(=O)Nc1ccc(Br)cc1F` as the molecule, how does the IC50 [9] read?
A: 10.6 µM (inactive)

Q: And the IC50 (Steroidogenic factor 1)?
A: 1.33 µM (active)

Q: And the IC50 [10]?
A: 35.1 µM (inactive)

Q: With `Cc1nn(-c2ccc(Cl)cc2)c(Cl)c1/C=N/NC(=O)c1ccc(NS(=O)(=O)c2cccs2)cc1` as the molecule, how does the EC50 [11] read?
A: 1.53 µM (active)

Q: What about the EC50 (Streptokinase A) of the same molecule?
A: > 150 µM (not active)

Q: And the EC50 (Streptococcus)?
A: 5.2 µM (active)

Q: What about the IC50 [2] of the same molecule?
A: 7.71 µM (active)

Q: What about the IC50 [3] of the same molecule?
A: 27.4 µM (active)

Q: With `COc1cc(OC)cc(-c2oc3cccnc3c2C#CCCO)c1` as the molecule, how does the IC50 [9] read?
A: 1.87 µM (active)

Q: What about the IC50 (Steroidogenic factor 1) of the same molecule?
A: 0.443 µM (active)

Q: What about the IC50 [10] of the same molecule?
A: 27.3 µM (inactive)
